What was measured:
Bile acid receptor = target: T1, Bile acid receptor (Homo sapiens, UniProt Q96RI1); assay: Agonist activity at glutathione transferase-tagged human FXR ligand binding domain assessed as biotinylated Src1 peptide recruitment incubated for 30 mins by AlphaScreen assay
T1 sequence (Q96RI1 whole entry): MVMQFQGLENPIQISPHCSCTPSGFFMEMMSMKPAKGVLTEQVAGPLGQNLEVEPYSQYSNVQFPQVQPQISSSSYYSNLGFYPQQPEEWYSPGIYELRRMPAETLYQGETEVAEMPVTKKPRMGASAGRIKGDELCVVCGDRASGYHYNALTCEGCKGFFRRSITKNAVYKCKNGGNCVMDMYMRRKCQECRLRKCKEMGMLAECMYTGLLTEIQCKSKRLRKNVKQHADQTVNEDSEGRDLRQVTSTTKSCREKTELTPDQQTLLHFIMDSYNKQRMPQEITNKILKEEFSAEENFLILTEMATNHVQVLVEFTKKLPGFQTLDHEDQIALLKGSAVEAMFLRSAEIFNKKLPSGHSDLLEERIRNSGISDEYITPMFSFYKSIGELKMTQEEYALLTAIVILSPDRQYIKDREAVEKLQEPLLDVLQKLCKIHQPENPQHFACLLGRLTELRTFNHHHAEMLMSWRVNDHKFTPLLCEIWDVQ

[1] = target: T2, G-protein coupled bile acid receptor 1 (Homo sapiens, UniProt Q8TDU6); assay: Agonist activity at TGR5 receptor in human NCI-H716 cells assessed as activation of intracellular cAMP production incubated for 1 hr by HTR-FRET assay; type: functional, cell-based
T2 sequence (Q8TDU6 whole entry): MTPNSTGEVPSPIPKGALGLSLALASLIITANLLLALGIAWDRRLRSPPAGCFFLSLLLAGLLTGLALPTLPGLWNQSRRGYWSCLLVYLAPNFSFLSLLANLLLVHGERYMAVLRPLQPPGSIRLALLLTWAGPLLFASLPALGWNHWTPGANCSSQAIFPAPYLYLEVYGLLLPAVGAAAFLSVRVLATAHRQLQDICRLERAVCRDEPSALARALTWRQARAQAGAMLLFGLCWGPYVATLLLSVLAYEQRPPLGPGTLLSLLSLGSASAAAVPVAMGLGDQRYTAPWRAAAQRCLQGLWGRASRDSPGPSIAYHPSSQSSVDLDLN

[2] = target: T3, Bile acid receptor (Homo sapiens) (UniProt Q96RI1); assay: Agonist activity at glutathione transferase-tagged human FXR ligand binding domain assessed as biotinylated Src1 peptide recruitment incubated for 30 mins by AlphaScreen assay relative to CDCA; settings: filed as agonist
T3 sequence (whole entry): T1 sequence (Q96RI1 whole entry)

Structure (SMILES)	EC50 (Bile acid receptor)	EC50 [1]	Efficacy [2]
CC[C@H]1[C@@H](O)[C@@H]2[C@H](CC[C@]3(C)[C@@H]([C@H](C)CCOS(=O)(=O)O)CC[C@@H]23)[C@@]2(C)CCC(=O)C[C@@H]12	0.08 µM	5 µM	162%
CC[C@H]1[C@@H](O)[C@@H]2[C@H](CC[C@]3(C)[C@@H]([C@H](C)CCO)CC[C@@H]23)[C@@]2(C)CC[C@@H](O)C[C@@H]12	1.2 µM	1.1 µM	165%
CC[C@H]1[C@@H](O)[C@@H]2[C@H](CC[C@]3(C)[C@@H]([C@H](C)CCOS(=O)(=O)O)CC[C@@H]23)[C@@]2(C)CC[C@@H](O[C@@H]3O[C@H](CC(=O)O)[C@@H](O)[C@H](O)[C@H]3O)C[C@@H]12	5 µM	> 100 µM	115%
CC[C@H]1[C@@H](O)[C@@H]2[C@H](CC[C@]3(C)[C@@H]([C@H](C)CCOS(=O)(=O)O)CC[C@@H]23)[C@@]2(C)CC[C@@H](OS(=O)(=O)O)C[C@@H]12	> 100 µM	> 100 µM	–
